Test results published in US20240082208A1 (priority 2021, published 2024).

Columns and labels:
[1] = tested on: severe acute respiratory syndrome virus (SARS; SARS-CoV-2); set-up: species or system K18-ACE2 TG mice; details: mouse, in vivo
[2] = tested on: dengue virus; assay: In vitro dengue virus infection of Vero cells, viral RNA titer by qRT-PCR; type: cell-based; details: 40 μM, 48 hours after infection
Method: In order to evaluate the antiviral effect of irosustat in vitro, an additional experiment was performed in which Vero cells were infected with dengue virus. 16 hours before viral infection, cells were pre-treated with irosustat at a concentration of 0 μM, 20 μM or 40 μM, and 1 hour thereafter, the medium was replaced with a cell culture medium containing the drug. 48 hours after infection with the virus, the viral RNA titer of dengue virus in the cell culture medium was measured through qRT-PCR, and the results are shown in FIG. 3.

NS(=O)(=O)Oc1ccc2c3c(c(=O)oc2c1)CCCCC3 [irosustat, (6-oxo-8,9,10,11-tetrahydro-7H-cyclohepta[c]chromen-3-yl)sulfamate]
viral titer in the lung tissue, lower than vehicle [1]: about 77%
decrease of virus titer [2]: ≥ 50%
